Experimental data published in the supplement of paper PMC10307832.

What was measured:
Assay in all cases: relative viability (nuclei count vs DMSO), 5 days (fraction); higher = more cells survive
RO-3306 + OSI-027 = compound: C1=CC2=C(C=CC(=C2)C=C3C(=O)NC(=NCC4=CC=CS4)S3)N=C1 [RO-3306] + COc1cccc2cc(-c3nc([C@H]4CC[C@H](C(=O)O)CC4)n4ncnc(N)c34)[nH]c12 [OSI-027] (partner 0.5 µM)
How it was run: (§1)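 One day after seeding in 1536-well plates, lung cancer cell lines were dosed by pin tool. Dosing was either single-drug or a fixed anchor-drug dose plus five library-drug doses (not always all listed) in √10 steps. After 5 days, nuclei were stained in one fix-and-stain step and counted on 4× images, and relative viability is the nuclei count of treated wells over that of vehicle wells, given as the median of duplicate plates.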

RO-3306 + Vorinostat = compound: C1=CC2=C(C=CC(=C2)C=C3C(=O)NC(=NCC4=CC=CS4)S3)N=C1 [RO-3306] + O=C(CCCCCCC(=O)Nc1ccccc1)NO [Vorinostat] (partner 1 µM)
How it was run: as §1

[1] = compound: O=S(=O)(c1ccccc1)N(CC(F)(F)F)c1ccc(C(O)(C(F)(F)F)C(F)(F)F)cc1 + COc1cc2c(Oc3ccc(NC(=O)C4(C(=O)Nc5ccc(F)cc5)CC4)cc3F)ccnc2cc1OCCCN1CCOCC1 [Foretinib] (partner 0.25 µM)
How it was run: as §1

[2] = compound: O=S(=O)(c1ccccc1)N(CC(F)(F)F)c1ccc(C(O)(C(F)(F)F)C(F)(F)F)cc1 + CS(=O)(=O)N1CCN(Cc2cc3nc(-c4cccc5[nH]ncc45)nc(N4CCOCC4)c3s2)CC1 [Pictilisib] (partner 1 µM)
How it was run: as §1

[3] = compound: O=S(=O)(c1ccccc1)N(CC(F)(F)F)c1ccc(C(O)(C(F)(F)F)C(F)(F)F)cc1 + O=C(c1cc(Cc2n[nH]c(=O)c3ccccc23)ccc1F)N1CCN(C(=O)C2CC2)CC1 [Olaparib] (partner 8 µM)
How it was run: as §1

Cell Line | relative viability (RO-3306 + OSI-027; first compound 0.01 µM) | relative viability (RO-3306 + OSI-027; first compound 0.03162 µM) | relative viability (RO-3306 + OSI-027; first compound 0.1 µM) | relative viability (RO-3306 + OSI-027; first compound 0.3162 µM) | relative viability (RO-3306 + OSI-027; first compound 1 µM) | relative viability (RO-3306 + Vorinostat; first compound 0.01 µM) | relative viability (RO-3306 + Vorinostat; first compound 0.03162 µM) | relative viability (RO-3306 + Vorinostat; first compound 0.1 µM) | relative viability (RO-3306 + Vorinostat; first compound 0.3162 µM) | relative viability (RO-3306 + Vorinostat; first compound 1 µM) | relative viability ([1]; first compound 0.8 µM) | relative viability ([1]; first compound 2.53 µM) | relative viability ([1]; first compound 8 µM) | relative viability ([2]; first compound 0.8 µM) | relative viability ([2]; first compound 2.53 µM) | relative viability ([2]; first compound 8 µM) | relative viability ([3]; first compound 0.8 µM) | relative viability ([3]; first compound 2.53 µM) | relative viability ([3]; first compound 8 µM)
HCC-78 | 0.324 | 0.401 | 0.384 | 0.404 | 0.329 | 0.428 | 0.457 | 0.367 | 0.494 | 0.418 | 0.533 | 0.459 | 0.466 | 0.157 | 0.193 | 0.252 | 0.908 | 0.816 | 0.765
HCC-366 | 1.13 | 1.06 | 0.847 | 0.955 | 0.654 | 0.454 | 0.279 | 0.25 | 0.378 | 0.308 | 0.96 | 0.937 | 1.04 | 0.181 | 0.165 | 0.135 | 0.414 | 0.37 | 0.281
HCC-827 | 0.855 | 0.59 | 0.808 | 0.8 | 0.8 | 0.946 | 0.7 | 0.881 | 0.789 | 0.859 | 1.04 | 1.02 | 0.922 | 1.08 | 1.05 | 1.05 | 0.612 | 0.627 | 0.63
HOP-62 | 0.827 | 0.593 | 0.727 | 0.89 | 0.8 | 0.615 | 0.44 | 0.486 | 0.611 | 0.638 | 1.08 | 1.09 | 0.881 | 1.07 | 0.361 | 0.763 | 0.226 | 0.49 | 0.392
IA-LM |  |  |  |  |  | 1.09 | 0.519 | 0.973 | 0.947 | 0.749 | 1.08 | 1 | 1.12 | 0.355 | 0.305 | 0.524 | 0.94 | 0.651 | 0.681
LC-2-ad | 0.863 | 0.735 | 0.781 | 0.932 | 0.849 | 0.773 | 0.635 | 0.78 | 0.695 | 0.626 | 1.06 | 0.912 | 0.867 | 0.469 | 0.377 | 0.437 | 0.689 | 0.675 | 0.674
LCLC-97TM1 | 0.53 | 0.391 | 0.476 | 0.549 | 0.454 | 0.804 | 0.546 | 0.694 | 0.789 | 1.1 | 0.914 | 0.928 | 0.805 | 0.174 | 0.218 | 0.187 |  | 0.355 | 0.257
LCLC-103H | 0.479 | 0.392 | 0.45 | 0.418 | 0.508 | 0.903 | 0.663 | 0.796 | 0.812 | 0.766 | 0.973 | 0.758 | 0.81 | 0.536 | 0.592 | 0.651 | 0.813 | 0.737 | 0.772
